Assay results taken from patent US5608095A, “Alkyl-4-silyl-phenols and esters thereof as antiatherosclerotic agents” (Hoechst Marion Roussel, Inc., priority 1996, dated 1997).
Like-named read-outs stand apart in the source and are kept apart here.

Legend:
[1] = tested on: VCAM-1; experiment: Cell surface ELISA for VCAM-1 in human umbilical vein endothelial cells (HUVEC), TNF-alpha induced; format: cell-based; settings: 50 μM, average of three runs
Procedure: (§1) Cell Surface ELISA for VCAM-1/ICAM-1
(§2) Proliferating human umbilical vein endothelial cells (HUVEC) or human aortic smooth muscle cells (HASMC) from Clonetics (San Diego, Calif.) were plated onto 96-well plates in 100 μL medium per well at 20,000 cells per cm^2. The cultures were maintained in growth medium (EGM or SMGM2, Clonetics, San Diego, Calif.) for two days prior to addition of cytokines or drugs. Cytokines plus or minus compounds were added for 20 to 24 hours prior to analysis for adhesion molecule levels. Tumor necrosis factor (Genzyme, Cambridge, Mass.) was added to cultures at 500-1000 units/mL. Interleukin-4 (GIBCO-BRL, Gaithersburg, Md.) was added to cultures at 100-200 pg/mL. (Additions were made by transferring 100 [μL of cytokines plus compounds serially diluted on a separate 96-well plate into the plates containing cells. The medium on the cultures was not exchanged prior to addition of effectors). The culture medium was removed, and the monolayers were washed twice with Hanks buffered saline solution (HBSS) at room temperature. The primary antibody (anti-human VCAM-1 from Upstate Biotechnology, Inc., Lake Placid, N.Y. or anti-human ICAM-1 from Immunotech, Inc., Westbrook, Me.) was added to each well (1 μg/mL in HBSS plus 5% newborn calf serum, GIBCO-BRL, Gaithersburg, Md.) and incubated at 37° C. for 1 hr. The wells were washed twice with HBSS, then 100 μL of a 1/1000 dilution of goat anti-mouse IgG conjugated to horse radish peroxidase (BioRad, Hercules, Calif.) in HBSS plus 5% newborn calf serum was added to each well and incubated for 1 hr at 37° C. The wells were washed three times with HBSS, then 100 μL of TMB substrate (BioRad, Hercules, Calif.) was added to each well. The reaction was stopped after blue color developed by addition of 50 μL of 1N H2 SO4. Absorbance is measured at 450 nm with a plate reader. IC50 values were determined from curves of absorbance values obtained from serial dilutions of compounds (dissolved in dimethyl sulfoxide).
(§3) The IC50 value is defined as the drug concentration that inhibits the cytokine-induced adhesion molecule expression by 50%. Maximal values for adhesion molecule expression in cytokine-induced cultures was […] the basal level of adhesion molecule expression (minus cytokines) in the cultures to determine the level of induction. […] Each drug concentration was tested in quadruplicate wells. Single point tests of compounds at 50 μM were assayed as described for IC50 determinations, except that the data represent the level of inhibition without correction for basal expression. (Basal adhesion molecule expression was 10-20% of the total induced expression). Table 1 summarizes the ability of various compounds of this invention to inhibit VCAM-1 using human aortic smooth muscle cells (HASMC). In these experiments, the cells were coincubated with interleukin-4 and the compounds listed about 20 hr before assaying cell surface VCAM-1 levels. Each column represents a separate experiment.
(§4) In these experiments, the cells were coincubated with tumor necrosis factor-alpha along with the indicated compounds about 20 to 24 hr before assaying cell surface adhesion molecule expression.

[2] = Animal parameters (food, body weight, liver weight, mortality) in rats; format: in vivo, male Sprague-Dawley rats; settings: 4 days; for mortality at 96 h: in vivo, po, read-out: mortality (deaths per group); for mortality at 96 h / body wt., percent of control / lw/bw (liver weight/body weight), percent of control: rat
Summary of the method: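 Male Sprague-Dawley rats (50–100 g, n=5/group) received compound as a 0.3% or 0.1% dietary admixture for 4 days, alongside an untreated control group. On day 5, non-fasted rats were bled and killed. Body weight, liver weight, food intake (g·day⁻¹·rat⁻¹) and mortality were recorded.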

[3] = HPLC quantitation of compound and metabolite concentration in rat serum and liver; format: in vivo, male Sprague-Dawley rats; settings: po, 4 days
Summary of the method: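 Male Sprague-Dawley rats (50–100 g, n=5) fed compound as 0.3% or 0.1% dietary admixture for 4 days; serum and liver taken day 5. Ether:ethanol extracts analysed by reverse-phase C18 HPLC at 240, 254, 420 nm for parent, bisphenol and diphenoquinone; recovery-corrected, μg/mL serum, μg/g liver.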

[4] = tested on: ICAM-1; experiment: Cell surface ELISA for ICAM-1 in human umbilical vein endothelial cells (HUVEC), TNF-alpha induced; format: cell-based; settings: 50 μM, average of two runs, numbers in parentheses represent negative values
Procedure: as §1, §2, §3, §4

CC(C)(C)c1cc(OC[Si](C)(C)c2ccc(C(F)(F)F)cc2)cc(C(C)(C)C)c1O [MDL 105,975, 2,6-Di-t-butyl-4-[(dimethyl-4-trifluoromethylphenylsilyl)methyloxy]phenol]
VCAM-1 % inh. [1]: 6.3% | food (grams eaten per day per rat), percent of control ([2]; diet 0.1%): 106% | food (grams eaten per day per rat), percent of control ([2]; diet 0.3%): 98% | mortality at 96 h ([2]; diet 0.1%): 0% | mortality at 96 h ([2]; diet 0.3%): 0% | body wt., percent of control ([2]; diet 0.1%): 98% | lw/bw (liver weight/body weight), percent of control ([2]; diet 0.1%): 105% | body wt., percent of control ([2]; diet 0.3%): 100% | lw/bw (liver weight/body weight), percent of control ([2]; diet 0.3%): 113% | concentration at 96 h ([3]; rat liver, diet 0.1%, read-out: Liver Parent = parent compound concentration): 94500 ng/g | concentration at 96 h ([3]; rat liver, diet 0.3%, read-out: Liver Parent = parent compound concentration): 186000 ng/g | concentration at 96 h ([3]; rat serum, diet 0.1%, read-out: Serum Parent = parent compound concentration): 23800 ng/mL | concentration at 96 h ([3]; rat serum, diet 0.3%, read-out: Serum Parent = parent compound concentration): 35800 ng/mL | ICAM-1 % inh. [4]: 2.5%
